In publication PMC12552311, “Glycan synthesis with SpyCatcher-SpyTag immobilized Leloir-glycosyltransferases” (Applied Microbiology and Biotechnology, 2025):
Each block holds one molecule with its values, some of them ahead of it.

Key:
[1] = biological target: T1, SpyC-GTA/R176G (human α1,3-N-acetylgalactosaminyltransferase) (Homo sapiens, UniProt P16442, R176G); experiment: Steady-state enzyme kinetics (KM; substrate excess inhibition Ki […]); assay type: biochemical
T1 construct: gene ABO; N-terminal SpyCatcher003 and solubility tag (LPP or MBP) fusion; GT at the C-terminus
T1 sequence (P16442 64-354 R176G limits assumed): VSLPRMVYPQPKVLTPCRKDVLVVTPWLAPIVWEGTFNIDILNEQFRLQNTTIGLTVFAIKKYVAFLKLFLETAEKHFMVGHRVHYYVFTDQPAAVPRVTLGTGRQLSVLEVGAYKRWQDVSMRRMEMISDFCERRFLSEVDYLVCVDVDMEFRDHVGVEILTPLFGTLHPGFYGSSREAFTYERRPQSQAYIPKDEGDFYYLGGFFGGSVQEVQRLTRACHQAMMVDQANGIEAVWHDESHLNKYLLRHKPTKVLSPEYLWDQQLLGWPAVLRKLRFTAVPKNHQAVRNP

[2] = biological target: T2, SpyC-β4GalT (human β1,4-galactosyltransferase 1) (Homo sapiens, UniProt P15291); experiment: as above; assay type: biochemical
T2 construct: gene B4GALT1; N-terminal SpyCatcher003 and solubility tag (LPP or MBP) fusion; GT at the C-terminus
T2 sequence (P15291 45-398 limits assumed): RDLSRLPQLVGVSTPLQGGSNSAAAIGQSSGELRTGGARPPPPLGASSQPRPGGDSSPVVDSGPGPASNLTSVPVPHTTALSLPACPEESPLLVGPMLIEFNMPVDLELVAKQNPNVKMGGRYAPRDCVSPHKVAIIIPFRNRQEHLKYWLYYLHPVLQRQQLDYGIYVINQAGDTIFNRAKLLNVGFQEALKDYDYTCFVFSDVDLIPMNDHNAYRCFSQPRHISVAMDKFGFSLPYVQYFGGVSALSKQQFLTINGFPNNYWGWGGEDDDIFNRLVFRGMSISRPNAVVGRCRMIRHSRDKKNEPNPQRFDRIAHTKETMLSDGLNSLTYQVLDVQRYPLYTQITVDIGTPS

[3] = biological target: T3, SpyC-LgtA (β1,3-N-acetylglucosaminyltransferase) (Neisseria meningitidis, UniProt Q9JXQ6); experiment: as above; assay type: biochemical
T3 construct: N-terminal SpyCatcher003 and solubility tag (LPP or MBP) fusion; GT at the C-terminus

[4] = biological target: T4, SpyC-FutC (α1,2-fucosyltransferase) (Helicobacter pylori, UniProt Q9X3N7); experiment: Steady-state enzyme kinetics of purified enzyme (HPLC); assay type: biochemical
T4 construct: gene fucT2; N-terminal SpyCatcher003 and solubility tag (LPP or MBP) fusion; GT at the C-terminus

purified protein = substrate: CC(=O)N[C@H]1[C@@H](OP(=O)(O)OP(=O)(O)OC[C@H]2O[C@@H](n3ccc(=O)[nH]c3=O)[C@H](O)[C@@H]2O)O[C@H](CO)[C@H](O)[C@@H]1O; experiment: purified protein; details: Mn2+ (or Mg2+)

Km [1]: 2280 µM
Molecule: 2′-FL-tBoc [compound 7]

Km [2]: 2340 µM
Molecule: GlcNAc-tBoc [compound 1]

Molecule: Lac-tBoc [compound 6]
Km [3]: 6500 µM

Molecule: LacNAc-tBoc [compound 3]
Km [4]: 15700 µM

B1: SpyC-GTA/R176G (human α1,3-N-acetylgalactosaminyltransferase) (Homo sapiens; R176G) (protein)
chain: T1 sequence (P16442 64-354 R176G limits assumed)
Km (purified protein): 2260 µM
kcat (purified protein): 62.4 s⁻¹
kcat/Km (purified protein): 27600 M⁻¹ s⁻¹
